# From US20150080844A1, “THERAPY FOR KIDNEY DISEASE AND/OR HEART FAILURE BY INTRADERMAL INFUSION” (Medtronic, Inc., priority 2012, published 2015)
# Where two headings read alike, the source gives them in different places.
# Tests used:
# [1] = design: species or system humans; details: in vivo
# Experimental: (§1) Osterode et al. published plasma concentration data for humans injected with ANP by either SQ or IV bolus. FIG. 5 presents the IV bolus data (FIG. 5A) and SQ bolus data (FIG. 5B) from the Osterode et al. with selected points digitized shown by open circles.
# The digitized data points from FIG. 5A and FIG. 5B were baseline-corrected and analyzed using a commercial pharmacokinetic analysis software package (Phoenix v6.2, Pharsight, Cary, N.C.). Non-compartmental analysis (NCA) was performed first, followed by compartmental modeling. Bioavailability for administration into the SQ space (F) was estimated by dividing the area-under-the-curve (AUC) for the SQ bolus (FIG. 5B) by the AUC IV bolus (FIG. 5A), which was assumed to have 100% bioavailability. The slope of the terminal phase (λZ) for the IV and SQ data from FIG. 5 was estimated using linear regression. The estimate for λZ was converted to a half-life (t1/2) using Equation 1. […]
# Similarly, the one-compartmental model for SQ bolus injection can be modeled by Equations 4 and 5, where Aa is the amount of drug in the injection site (pmol), ka is the absorption rate constant (1/min), and F is the bioavailability as a unitless decimal. […] Clearance (CL) and t½ were calculated as secondary model parameters. […]
# [2] = clinical; design: species or system humans; details: in vivo; for bioavailability: F (bioavailability)
# Experimental: as §1
# The digitized data points from FIG. 5A and FIG. 5B were baseline-corrected and analyzed using a commercial pharmacokinetic analysis software package (Phoenix v6.2, Pharsight, Cary, N.C.). Non-compartmental analysis (NCA) was performed first, followed by compartmental modeling. Bioavailability for administration into the SQ space (F) was estimated by dividing the area-under-the-curve (AUC) for the SQ bolus (FIG. 5B) by the AUC IV bolus (FIG. 5A), which was assumed to have 100% bioavailability. The slope of the terminal phase (λZ) for the IV and SQ data from FIG. 5 was estimated using linear regression. The estimate for λZ was converted to a half-life (t1/2) using Equation 1.
# Similarly, the one-compartmental model for SQ bolus injection can be modeled by Equations 4 and 5, where Aa is the amount of drug in the injection site (pmol), ka is the absorption rate constant (1/min), and F is the bioavailability as a unitless decimal. The initial estimates for primary model parameters ke and V/F were taken from the results of the NCA analysis of the IV data (ke=λZ) from the IV bolus data in FIG. 5A from Osterode et al. The initial estimate for the primary model parameter ka was taken from the results of the NCA analysis of the SQ data (ka=λZ) from the SQ bolus data in FIG. 5B. Clearance (CL) and t½ were calculated as secondary model parameters.
# Table 1 reports the values for AUC, elimination t1/2, volume of distribution (V) and clearance (CL) reported by Osterode et al. compared to those obtained from the NCA analysis of the digitized data as described above.
# The results of the one-compartment modeling of the data from Osterode et al. are reported in Table 2 and FIG. 7, where the present NCA results are also included for comparison. FIGS. 7A (log scale) and 7B (non-log scale) show a model for a 50 μg IV bolus and FIGS. 7C (log scale) and 7D (non-log scale) show a model for a 50 μg SQ bolus. Both the NCA and compartmental analysis estimate the bioavailability to be approximately 20%. It is notable that the estimates for ka from the SQ bolus data are nearly identical for the NCA and compartmental analysis (0.039 min^−1), while the compartmental analysis estimate for ke is 2.6-times greater than the NCA estimate (0.26 vs. 0.099 min^−1).
# [3] = in vivo, iv, 50 ug; cited from earlier work
# [4] = in vivo, cited from earlier work
# [5] = intradermal delivery; literature; cited from earlier work
Compound,"AUC ([1]; human, iv, 50 ug) [pmol·min/L]",ke [1] [min⁻¹],"AUC ([2]; human, 50 ug) [pmol·min/L]",bioavailability ([2]; human) [%],"F (bioavailability) ([2]; human, iv) [%]","bioavailability ([2]; human, iv) [%]",V/F [2] [L],compartmental analysis estimate for ke relative to NCA estimate [2] [times],ke [2] [min⁻¹],ke/ka (elimination greater than absorption) [2],AUC [3] [pmol·min/L],F (bioavailability) ([4]; human) [%],AUC ([4]; 50 ug) [pmol·min/L],"mean terminal half-life, SQ bolus compared to IV bolus ([4]; 50 ug) [fold]",bioavailability (in words) [5]
"CC[C@H](C)[C@@H]1NC(=O)[C@H](CCCNC(=N)N)NC(=O)[C@H](CC(=O)O)NC(=O)[C@H](CCSC)NC(=O)[C@H](CCCNC(=N)N)NC(=O)CNC(=O)CNC(=O)[C@H](Cc2ccccc2)NC(=O)[C@@H](NC(=O)[C@H](CO)NC(=O)[C@H](CO)NC(=O)[C@H](CCCNC(=N)N)NC(=O)[C@H](CCCNC(=N)N)NC(=O)[C@H](CC(C)C)NC(=O)[C@@H](N)CO)CSSC[C@@H](C(=O)N[C@@H](CC(N)=O)C(=O)N[C@@H](CO)C(=O)N[C@@H](Cc2ccccc2)C(=O)N[C@@H](CCCNC(=N)N)C(=O)N[C@@H](Cc2ccc(O)cc2)C(=O)O)NC(=O)CNC(=O)[C@H](CC(C)C)NC(=O)CNC(=O)[C@H](CO)NC(=O)[C@H](CCC(N)=O)NC(=O)[C@H](C)NC(=O)CNC1=O [ANP, atrial natriuretic peptide]",1731,0.099,344,~20,19.9,~20,167,2.6,0.26,6.6,1793,19.2,345,3,–
Entanercept,–,–,–,–,–,–,–,–,–,–,–,–,–,–,high bioavailability
Somatropin,–,–,–,–,–,–,–,–,–,–,–,–,–,–,high bioavailability
